The results in this text go back to ChEMBL document CHEMBL4813985, “Lead optimization generates selenium-containing miconazole CYP51 inhibitors with improved pharmacological profile for the treatment of fungal infections” (Eur J Med Chem, 2021).

≈ marks a conversion by molar mass, not a printed value.

Assay [1] concerns Candida albicans. Briefly: Potency index, ratio of fluconazole MIC to test compound MIC for Candida albicans CPCC400616 measured after 24 hrs by broth microdilution assay. In kind it is functional.
For assay [2], the system named is Candida albicans. Briefly: Antifungal activity against Candida albicans CPCC400616 measured after 24 hrs by broth microdilution assay. In kind it is functional.
Assay [3] concerns Candida albicans. Kind of assay: Antifungal activity against fluconazole-resistant Candida albicans 632 assessed as inhibition of microbial growth after 24 hrs by broth microdilution method. In kind it is functional. A general note: Dilution methods test growth across graded concentrations, often in twofold steps.
A further assay concerns Nakaseomyces glabratus. Briefly: Antifungal activity against Candida glabrata measured after 24 hrs by broth microdilution assay. In kind it is functional.
Assay [4] relates to Candida albicans. Kind of assay: Antifungal activity against fluconazole-resistant Candida albicans CaR assessed as inhibition of microbial growth after 24 hrs by broth microdilution method. In kind it is functional.
The subject of assay [5] is Candida albicans. Briefly: Antifungal activity against fluconazole-resistant Candida albicans 17# assessed as inhibition of microbial growth after 24 hrs by broth microdilution method. In kind it is functional.
The test system of the next assay is Cryptococcus neoformans. Kind of assay: Antifungal activity against Cryptococcus neoformans CMGCC2.3161 measured after 72 hrs by broth microdilution assay. In kind it is functional.
Assay [6] concerns Candida albicans. Briefly: Antifungal activity against Candida albicans ATCC SC5314 measured after 24 hrs by broth microdilution assay. In kind it is functional.
The next assay deals with Candida parapsilosis. Kind of assay: Antifungal activity against Candida parapsilosis ATCC 22019 measured after 24 hrs by broth microdilution assay. In kind it is functional. Particulars: Lodderomyces parapsilosis.
In assay [7] the test system is Candida albicans. Kind of assay: Antifungal activity against fluconazole-resistant Candida albicans 904 assessed as inhibition of microbial growth after 24 hrs by broth microdilution method. In kind it is functional.
A further assay deals with Pichia kudriavzevii. Briefly: Antifungal activity against Candida krusei AS2.1045 measured after 24 hrs by broth microdilution assay. In kind it is functional.
Assay [8] has as its system Candida albicans. Kind of assay: Antifungal activity against fluconazole-resistant Candida albicans 901 assessed as inhibition of microbial growth after 24 hrs by broth microdilution method. In kind it is functional.
The next assay deals with Aspergillus fumigatus. Briefly: Antifungal activity against Aspergillus fumigatus CMGCC3.7795 measured after 72 hrs by broth microdilution assay. In kind it is functional.
The next assay relates to [Candida] zeylanoides. Briefly: Antifungal activity against Candida zeylanoides CMGCC2.3739 measured after 24 hrs by broth microdilution assay. As to conditions: Dujonia zeylanoides. In kind it is functional.
The test system of another assay is HL-60. Kind of assay: Cytotoxicity against human HL-60 cells assessed as reduction in cell viability incubated for 96 hrs by MTT assay. In kind it is cell-based. As to conditions: HL-60, 96 h. (In general: Tetrazolium assays rely on reduction of a dye to a coloured formazan, in cell work by metabolically active cells.)
A further assay has as its system MCF-10A. Kind of assay: Cytotoxicity against human MCF-10A cells assessed as reduction in cell viability incubated for 96 hrs by MTT assay. In kind it is cell-based.
For another assay, the system named is PC-3. Kind of assay: Cytotoxicity against human PC3 cells assessed as reduction in cell viability incubated for 96 hrs by MTT assay. In kind it is cell-based. Particulars: PC-3, 96 h.
Another assay has as its system MDA-MB-231. Kind of assay: Cytotoxicity against human MDA-MB-231 cells assessed as reduction in cell viability incubated for 96 hrs by MTT assay. As to conditions: MDA-MB-231, 96 h.

Turning to `Cc1cccc([Se]C(Cn2ccnc2)c2ccc(Cl)cc2Cl)c1` (stereo unspecified), the Ratio in the assay with Candida albicans [1] was determined as 8. Besides, the MIC (in general, the least concentration at which growth counts as inhibited) in the assay with Candida albicans [2] was found to be 0.25 µg/mL (≈ 0.609 µM); with Candida albicans [3], 1 µg/mL; against Nakaseomyces glabratus, 1 µg/mL (≈ 2.44 µM); with Candida albicans [4] it was 1 µg/mL; in the assay with Candida albicans [5] it was 1 µg/mL; against Cryptococcus neoformans it was 0.25 µg/mL (≈ 0.609 µM). Further, the MIC in the assay with Candida albicans [6] amounted to 0.03 µg/mL (≈ 0.0731 µM); in the assay on Candida parapsilosis it was 0.25 µg/mL (≈ 0.609 µM); in the assay on Candida albicans [7], 1 µg/mL; against Pichia kudriavzevii, 0.06 µg/mL (≈ 0.146 µM); in the assay on Candida albicans [8] it was 1 µg/mL; in the assay with Aspergillus fumigatus, 4 µg/mL (≈ 9.75 µM). In assay [Candida] zeylanoides, this compound displayed an MIC of 0.25 µg/mL (≈ 0.609 µM).
On to `COc1cccc2c1C(=O)c1c(O)c3c(c(O)c1C2=O)C[C@@](O)(C(=O)CO)C[C@@H]3O[C@H]1C[C@H](N)[C@H](O)[C@H](C)O1` [DOXORUBICIN], for which the IC50 (in general, the midpoint of a concentration-inhibition curve) in the assay on HL-60 is under 125 nM; in the assay with MCF-10A it was 2640 nM; in the assay on PC-3 it was 640 nM.
On to `COc1ccccc1[Se]C(Cn1ccnc1)c1ccc(Cl)cc1Cl` (stereo unspecified), for which the Ratio with Candida albicans [1] was determined as 8. Also, the MIC against Candida albicans [2] stood at 0.06 µg/mL (≈ 0.141 µM); in the assay on Candida albicans [3], 2 µg/mL; in the assay with Nakaseomyces glabratus, 0.5 µg/mL (≈ 1.17 µM); with Candida albicans [4], 2 µg/mL; with Candida albicans [5], 2 µg/mL; in the assay on Cryptococcus neoformans, 0.5 µg/mL (≈ 1.17 µM). The MIC was 0.03 µg/mL (≈ 0.0704 µM) in the assay with Candida albicans [6]; 0.13 µg/mL (≈ 0.305 µM) in the assay on Candida parapsilosis; 8 µg/mL in the assay on Candida albicans [7]; 0.13 µg/mL (≈ 0.305 µM) in the assay with Pichia kudriavzevii; 1 µg/mL in the assay with Candida albicans [8]; 8 µg/mL (≈ 18.8 µM) against Aspergillus fumigatus. Further, the MIC in assay [Candida] zeylanoides came out at 0.25 µg/mL (≈ 0.587 µM).
Regarding `COc1cccc([Se]C(Cn2ccnc2)c2ccc(Cl)cc2Cl)c1` (stereo unspecified), the Ratio in the assay with Candida albicans [1] amounted to 8. Moreover, the minimal inhibitory concentration (MIC) against Candida albicans [2] is 0.25 µg/mL (≈ 0.587 µM); in the assay on Candida albicans [3], 16 µg/mL; against Nakaseomyces glabratus it was 0.5 µg/mL (≈ 1.17 µM); with Candida albicans [4], 8 µg/mL; in the assay with Candida albicans [5], 2 µg/mL; against Cryptococcus neoformans, 0.25 µg/mL (≈ 0.587 µM). Further, the MIC against Candida albicans [6] is 0.03 µg/mL (≈ 0.0704 µM); against Candida parapsilosis, 0.5 µg/mL (≈ 1.17 µM); in the assay on Candida albicans [7] it was 4 µg/mL; with Pichia kudriavzevii, 0.06 µg/mL (≈ 0.141 µM); in the assay on Candida albicans [8], 16 µg/mL; against Aspergillus fumigatus it was 8 µg/mL (≈ 18.8 µM). This compound also displayed a minimum inhibitory concentration (MIC) in assay [Candida] zeylanoides of 0.5 µg/mL (≈ 1.17 µM).
As for `Cc1ccc(C)c([Se]C(Cn2ccnc2)c2ccc(F)cc2F)c1` (stereo unspecified), the Ratio in the assay with Candida albicans [1] turned out to be 8. Besides, the MIC in the assay with Candida albicans [2] stood at 0.25 µg/mL (≈ 0.639 µM); with Candida albicans [3] it was 2 µg/mL; in the assay on Nakaseomyces glabratus it was 0.5 µg/mL (≈ 1.28 µM); with Candida albicans [4], 8 µg/mL; with Candida albicans [5], 4 µg/mL; in the assay with Cryptococcus neoformans, 0.25 µg/mL (≈ 0.639 µM). Moreover, the MIC is 0.06 µg/mL (≈ 0.153 µM) with Candida albicans [6]; 0.13 µg/mL (≈ 0.332 µM) with Candida parapsilosis; 8 µg/mL in the assay on Candida albicans [7]; 0.13 µg/mL (≈ 0.332 µM) against Pichia kudriavzevii; 4 µg/mL in the assay with Candida albicans [8]; 8 µg/mL (≈ 20.4 µM) against Aspergillus fumigatus. The MIC in assay [Candida] zeylanoides turned out to be 0.5 µg/mL (≈ 1.28 µM).
On to `CC(=O)O[C@H]1C(=O)[C@@]2(C)[C@H]([C@H](OC(=O)c3ccccc3)[C@]3(O)C[C@H](OC(=O)[C@H](O)[C@@H](NC(=O)c4ccccc4)c4ccccc4)C(C)=C1C3(C)C)[C@]1(OC(C)=O)CO[C@@H]1C[C@@H]2O` [PACLITAXEL], for which the IC50 is under 25 nM in the assay with PC-3 (read-out: IC50) and under 1 nM in the assay with MDA-MB-231.
